{"source": "PubChem BioAssay AID1963863", "about": "(Molecular Pharmacology Branch, DTP, NCI, 2024);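 note: compound exposure lasted 7 days before the readout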;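 for viability, T/C: 100% = DMSO vehicle control viability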", "tested_on": "931267-113-T-J1-PDC KRAS spheroid with HUVEC/MSC, viability", "test": "Anticancer human tumor 931267-113-T-J1-PDC patient-derived colon adenocarcinoma cell line growth inhibition [KRAS2]", "details": "for IC50: curve of first compound; for viability, T/C: stronger effect = lower value", "from_the_text": "Multicellular complex tumor spheroid response to RAS pathway inhibitors in combination with a targeted agents in patient-derived cell lines with oncogenic KRAS variants from multiple cancer types\nA high-throughput screen of multi-cell type tumor spheroids was designed to identify active combinations of targeted small molecules and KRAS pathway inhibitors. Complex spheroids include a stromal component modeled by human endothelial cells (HUVEC) and fibroblasts modeled by human mesenchymal stem cells (MSCs). The concentration ranges selected for each drug and investigational agent were based upon clinically achievable concentrations if the clinical Cmax of the agent was known.\nCompounds. The drugs and investigational agents: BI-3406 (NSC825286), BAY-293 (NSC824723), batoprotafib (TNO155; NSC825523), sotorasib (AMG 510; NSC818433), MRTX1257 (NSC819558), elimusertib (BAY 1895344; NSC800525), molibresib (GSK525762; NSC774829), temuterkib (LY3214996; NSC803410), venetoclax (NSC766270), alisertib (NSC759677), olaparib (NSC753686), talazoparib (NSC767125), erdafitinib (NSC781556), ipatasertib (NSC767898), cabozantinib (NSC761068), nintedanib (NSC756659), abemaciclib (NSC768073), docetaxel (NSC628503), trametinib (NSC758246), and sapanisertib (NSC764658) were obtained from the National Cancer Institute (NCI) Developmental Therapeutics Program Chemical Repository. The FDA-approved anticancer drug set is available from the Developmental Therapeutics Program. […] The stock solutions were prepared in dimethyl sulfoxide (DMSO, Sigma-Aldrich, St. Louis, MO, cat. D2650) at 800-fold the tested concentration and stored at -70 degrees C prior to their use. All drugs and investigational agents were tested over a range starting from a high concentration at or near the clinical Cmax and decreasing in half-log increments. If the clinical Cmax for an agent had not been determined, the highest concentration tested was 10 microM.\nCell Culture. All cells were maintained in an incubator at 37 degrees C and 5% CO2 with 95% humidity. The PDC lines were cultured according to standard operating procedures established by the NCI PDMR (https://pdmr.cancer.gov/sops/default.htm). Briefly, all PDCs were thawed and cultured in Matrigel-coated flasks prepared with a working solution of 1X Ham's F-12 nutrient mix, without supplementation (Invitrogen, Waltham, MA, cat. 11765054), 100 U/mL penicillin-streptomycin (Invitrogen, cat. 15140122), and 2.5% Matrigel (Corning Inc., Corning, NY, cat. 354248) for the first three passages. All PDCs were cultured in complete DMEM/F-12 media containing advanced DMEM/F-12 (Invitrogen, cat. 12634028), 4.9% defined fetal bovine serum, heat inactivated (HyClone Laboratories Inc., Logan, UT, cat. SH30070.03HI), 389 ng/mL hydrocortisone (Sigma-Aldrich, cat. H4001), 9.7 ng/mL human EGF recombinant protein (Invitrogen, cat. PHG0313), 23.4 microg/mL adenine (Sigma-Aldrich, cat. A2786), 97.3 U/mL penicillin-streptomycin (Invitrogen, cat. 15140122), 1.9 mM L-glutamine (Invitrogen, cat. 25030081), and 9.7 microM Y-27632 dihydrochloride (Tocris Bioscience, Bristol, United Kingdom, cat. 1254). The PDCs were cultured in complete DMEM/F12 media without 9.7 microM Y-27632 dihydrochloride for at least two passages prior to the screen. The established cell line HOP-62 was cultured in RPMI 1640 medium, HEPES (Invitrogen, cat. 22400105) with 10% defined fetal bovine serum (HyClone Laboratories Inc., cat. SH30070.03) and 2 mM L-glutamine (Invitrogen, cat. 25030081). The pooled donor HUVEC were cultured in endothelial cell growth medium 2 (PromoCell, Heidelberg, Germany, cat. C-22011) and the hMSC were cultured in mesenchymal stem cell growth medium 2 (PromoCell, cat. C-28009). For all experiments, HUVEC and hMSC were used at passages </=5, while the malignant cell lines were used at passages </=15. […]"}
{"smiles": "CC(=O)Nc1cccc(-n2c(=O)n(C3CC3)c(=O)c3c(Nc4ccc(I)cc4F)n(C)c(=O)c(C)c32)c1", "note": "+ C=CC(=O)N1CCN(c2nc(OCC3CCCN3C)nc3c2CCN(c2cccc4cccc(C)c24)C3)CC1CC#N", "values": [{"measurement": "IC50", "setting": "second compound 0.0316 µM", "result": 6.25, "unit": "nM"}, {"measurement": "IC50", "setting": "second compound 0.1 µM", "result": 11.9, "unit": "nM"}, {"measurement": "IC50", "setting": "second compound 0.316 µM", "result": 4.45, "unit": "nM"}, {"measurement": "IC50", "setting": "second compound 1 µM", "result": 1.48, "unit": "nM"}, {"measurement": "IC50", "setting": "second compound 3.16 µM", "result": "< 0.1", "unit": "nM"}, {"measurement": "viability, T/C", "setting": "second compound 0.0316 µM, first compound 0.0001 µM", "result": 98.9, "unit": "%"}, {"measurement": "viability, T/C", "setting": "second compound 0.0316 µM, first compound 0.000316 µM", "result": 78, "unit": "%"}, {"measurement": "viability, T/C", "setting": "second compound 0.0316 µM, first compound 0.001 µM", "result": 69.3, "unit": "%"}, {"measurement": "viability, T/C", "setting": "second compound 0.0316 µM, first compound 0.00316 µM", "result": 54.7, "unit": "%"}, {"measurement": "viability, T/C", "setting": "second compound 0.0316 µM, first compound 0.01 µM", "result": 60.3, "unit": "%"}, {"measurement": "viability, T/C", "setting": "second compound 0.0316 µM, first compound 0.0316 µM", "result": 13.2, "unit": "%"}, {"measurement": "viability, T/C", "setting": "second compound 0.1 µM, first compound 0.0001 µM", "result": 83, "unit": "%"}, {"measurement": "viability, T/C", "setting": "second compound 0.1 µM, first compound 0.000316 µM", "result": 82.4, "unit": "%"}, {"measurement": "viability, T/C", "setting": "second compound 0.1 µM, first compound 0.001 µM", "result": 64.2, "unit": "%"}, {"measurement": "viability, T/C", "setting": "second compound 0.1 µM, first compound 0.00316 µM", "result": 72.6, "unit": "%"}, {"measurement": "viability, T/C", "setting": "second compound 0.1 µM, first compound 0.01 µM", "result": 59.5, "unit": "%"}, {"measurement": "viability, T/C", "setting": "second compound 0.1 µM, first compound 0.0316 µM", "result": 8.65, "unit": "%"}, {"measurement": "viability, T/C", "setting": "second compound 0.316 µM, first compound 0.0001 µM", "result": 69.7, "unit": "%"}, {"measurement": "viability, T/C", "setting": "second compound 0.316 µM, first compound 0.000316 µM", "result": 83, "unit": "%"}, {"measurement": "viability, T/C", "setting": "second compound 0.316 µM, first compound 0.001 µM", "result": 54.9, "unit": "%"}, {"measurement": "viability, T/C", "setting": "second compound 0.316 µM, first compound 0.00316 µM", "result": 53.8, "unit": "%"}, {"measurement": "viability, T/C", "setting": "second compound 0.316 µM, first compound 0.01 µM", "result": 42.7, "unit": "%"}, {"measurement": "viability, T/C", "setting": "second compound 0.316 µM, first compound 0.0316 µM", "result": 9.24, "unit": "%"}, {"measurement": "viability, T/C", "setting": "second compound 1 µM, first compound 0.0001 µM", "result": 74.7, "unit": "%"}, {"measurement": "viability, T/C", "setting": "second compound 1 µM, first compound 0.000316 µM", "result": 59.8, "unit": "%"}, {"measurement": "viability, T/C", "setting": "second compound 1 µM, first compound 0.001 µM", "result": 45.9, "unit": "%"}, {"measurement": "viability, T/C", "setting": "second compound 1 µM, first compound 0.00316 µM", "result": 52.9, "unit": "%"}, {"measurement": "viability, T/C", "setting": "second compound 1 µM, first compound 0.01 µM", "result": 28.2, "unit": "%"}, {"measurement": "viability, T/C", "setting": "second compound 1 µM, first compound 0.0316 µM", "result": 9.56, "unit": "%"}, {"measurement": "viability, T/C", "setting": "second compound 3.16 µM, first compound 0.0001 µM", "result": 0.22, "unit": "%"}, {"measurement": "viability, T/C", "setting": "second compound 3.16 µM, first compound 0.000316 µM", "result": 0.24, "unit": "%"}, {"measurement": "viability, T/C", "setting": "second compound 3.16 µM, first compound 0.001 µM", "result": 0.28, "unit": "%"}, {"measurement": "viability, T/C", "setting": "second compound 3.16 µM, first compound 0.00316 µM", "result": 0.24, "unit": "%"}, {"measurement": "viability, T/C", "setting": "second compound 3.16 µM, first compound 0.01 µM", "result": 0.21, "unit": "%"}, {"measurement": "viability, T/C", "setting": "second compound 3.16 µM, first compound 0.0316 µM", "result": 0.25, "unit": "%"}]}
